Experimental data: US6218393A, “Anthranilic acid derivatives as multi drug resistance modulators” (priority 1997, dated 2001)

What was measured:
[1] = tested on: AR 1.0 cells; experiment: Potentiation index with doxorubicin titration; format: cell-based, mouse; settings: for Potentiation Index at RMA concentration 500 nM: Table C2, RMA 500 nM; for Potentiation Index at RMA concentration 10 nM: Table C2, RMA 10 nM; for Potentiation Index at RMA concentration 30 nM: Table C2, RMA 30 nM; for Potentiation Index at RMA concentration 100 nM: Table C2, RMA 100 nM; for Potentiation Index at RMA concentration 300 nM: Table C2, RMA 300 nM
How it was run: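 Doxorubicin IC50 in AR 1.0 cells (MDR subline of EMT6 mouse mammary carcinoma) determined by sulphorhodamine B after 4-day culture across 0.263 nM-17.24 μM, with and without a fixed dose of test compound; their ratio gives the PI.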

[2] = tested on: AR 1.0 cells; experiment: Drug accumulation assay: daunorubicin accumulation in AR 1.0 cells; format: cell-based; settings: Mus musculus, 100% = accumulation with verapamil 100 μM, 1 hr, 37° C.
How it was run: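 Daunorubicin accumulation was measured in cells plated 48 h beforehand. These were AR 1.0 cells, an MDR-resistant derivative of mouse EMT6 mammary carcinoma, cultured at 37 °C in 5% CO2 in RPMI 1640 plus 10% foetal calf serum and 2 mM glutamine.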

[3] = tested on: AR 1.0 cells; experiment: Potentiation of doxorubicin toxicity: proliferation assay (sulphorhodamine B); format: cell-based, mouse
Excerpt: (a) Selected compounds of formula (I) were examined for their ability to potentiate the toxicity of doxorubicin in AR 1.0 cells.

[4] = Mus musculus, 96 h, compound alone, four day proliferation, read-out: Compound Toxicity (IC50)
[5] = with fixed doxorubicin 0.34 μm, four days, 5760 min, read-out: Toxicity with Cytotoxic Agent (IC50)

Structure (SMILES) | Potentiation Index at RMA concentration 500 nM [1] | IC50 [2] [nM] | IC50 [3, 4] [nM] | Potentiation Index at RMA concentration 10 nM [1] | Potentiation Index at RMA concentration 30 nM [1] | Potentiation Index at RMA concentration 100 nM [1] | IC50 [3, 5] [nM] | Potentiation Index at RMA concentration 300 nM [1]
COc1cc2c(cc1OC)CN(CCNC(=O)c1cc(Br)ccc1NC(=O)c1ccc(C(C)C)cc1)CC2 [compound 9394, 2-(4-Isopropyl-benzoylamino)-N-[2-(6,7-dimethoxy-3,4-dihydro-1H-isoquinolin-2-yl)-ethyl]-5-bromo-benzamide] | 12 | 3400 | 10000 | – | – | – | – | –
COc1cc2c(cc1OC)CN(CCc1ccc(NC(=O)c3ccc(Cl)cc3NC(=O)c3cnc4ccccc4c3)cc1)CC2 [compound 9586, Quinoline-3-carboxylic acid (2-{4-[2-(6,7-dimethoxy-3,4-dihydro-1H-isoquinolin-2-yl)-ethyl]-phenylcarbamoyl}-5-chloro-phenyl)-amide] | – | 180 | 7400 | 5 | 6 | – | – | –
COc1cc2c(cc1OC)CN(CCc1ccc(NC(=O)c3cc(Cl)ccc3NC(=O)c3cnc4ccccc4c3)cc1)CC2 [compound 9593, Quinoline-3-carboxylic acid (2-{4-[2-(6,7-dimethoxy-3,4-dihydro-1H-isoquinolin-2-yl)-ethyl]-phenylcarbamoyl}-4-chloro-phenyl)-amide] | – | 14 | 7000 | 6 | 57 | – | – | –
COc1cc2c(cc1OC)CN(CCc1ccc(NC(=O)c3cc(F)ccc3NC(=O)c3cnc4ccccc4n3)cc1)CC2 [compound 9568, Quinoxaline-2-carboxylic acid. (2-{4-[2-(6,7-dimethoxy-3,4-dihydro-1H-isoquinolin-2-yl)-ethyl]-phenylcarbamoyl}-4-fluoro-phenyl)-amide] | – | 17 | 2800 | 23 | 60 | 88 | 3.4 | –
COc1cc2c(cc1OC)CN(CCc1ccc(NC(=O)c3ccccc3NC(=O)c3cnc(C)cn3)cc1)CC2 [compound 9527, 5-Methyl-pyrazine-2-carboxylic acid (2-{4-[2-(6,7-dimethoxy-3,4-dihydro-1H-isoquinolin-2-yl)-ethyl]-phenylcarbamoyl}-phenyl)-amide] | 120 | 52 | 4500 | 1.5 | 11 | 50 | 7 | 103
COc1cc2c(cc1OC)CN(CCc1ccc(NC(=O)c3ccccc3NC(=O)c3ccccc3C)cc1)CC2 [compound 9497, 2-(2-Methyl-benzoylamino)-N-{4-[2-(6,7-dimethoxy-3,4-dihydro-1H-isoquinolin-2-yl}-ethyl]-phenyl}-benzamide] | 200 | 1600 | 9000 | – | – | – | 80 | 52
COc1cc2c(cc1OC)CN(CCNC(=O)c1cccc(O)c1NC(=O)c1ccc(C(C)C)cc1)CC2 [compound 9424, 2-(4-Isopropyl-benzoylamino)-N-[2-(6,7-dimethoxy-3,4-dihydro-1H-isoquinolin-2-yl)-ethyl]-3-hydroxy-benzamide] | 37 | 2500 | 39000 | – | – | – | 2600 | –
COc1cc2c(cc1OC)CN(CCc1ccc(NC(=O)c3ccccc3NC(=O)c3ccc(C)c(C)c3)cc1)CC2 [compound 9538, 2-(3,4-Dimethyl-benzoylamino)-N-{4-[2-(6,7-dimethoxy-3,4-dihydro-1H-isoquinolin-2-yl)-ethyl]-phenyl}-benzamide] | – | 220 | 2300 | – | – | 43 | 14 | 128
COc1cc2c(cc1OC)CN(CCNC(=O)c1ccccc1NC(=O)c1ccc(C(C)C)cc1)CC2 [compound 9304, 2-(4-Isopropyl-benzoylamino)-N-[2-(6,7-dimethoxy-3,4-dihydro-1H-isoquinolin02-yl)-ethyl]-benzamide] | 30 | 1200 | 8000 | – | – | – | 150 | –
COc1cc2c(cc1OC)CN(CCc1ccc(NC(=O)c3ccccc3NC(=O)c3cc4ccccc4o3)cc1)CC2 [compound 9539, Benzofuran-2-carboxylic acid (2-{4-[2-(6,7-dimethoxy-3,4-dihydro-1H-isoquinolin-2-yl)-ethyl]-phenylcarbamoyl}-phenyl)-amide] | – | 220 | 1700 | – | – | 32 | 11 | 128
COc1cc2c(cc1OC)CN(CCc1ccc(NC(=O)c3cc(O)ccc3NC(=O)c3cnc4ccccc4n3)cc1)CC2 [compound 9554, Quinoxaline-2-carboxylic acid (2-{4-[2-(6,7-dimethoxy-3,4-dihydro-1H-isoquinolin-2-yl)-ethyl]-phenylcarbamoyl}-4-hydroxy-phenyl)-amide] | – | 990 | 3000 | – | – | 90 | 50 | –
COc1cc2c(cc1OC)CN(CCNC(=O)c1ccccc1NC(=O)c1ccc(Oc3ccccc3)cc1)CC2 [compound 9426, 2-(4-Phenoxy-benzoylamino)-N-[2-(6,7-dimethoxy-3,4-dihydro-1H-isoquinolin-2-yl)-ethyl]-benzamide] | 65 | 690 | 7000 | – | – | – | 60 | –
COc1cc2c(cc1OC)CN(CCc1ccc(NC(=O)c3ccccc3NC(=O)c3ccccc3Cl)cc1)CC2 [compound 9494] | 148 | 400 | 9000 | – | – | – | 50 | 38
COc1cc2c(cc1OC)CN(CCNC(=O)c1ccccc1NC(=O)c1ccc(OC3CCCCC3)cc1)CC2 [compound 9459, 2-(4-Cyclohexyloxy-benzoylamino)-N-[2-(6,7-dimethoxy-3,4-dihydro-1H-isoquinolin-2-yl)-ethyl]-benzamide] | 112 | 650 | 8500 | – | – | – | 90 | 45
COc1cc2c(cc1OC)CN(CCc1ccc(NC(=O)c3ccccc3NC(=O)c3ccc4ccccc4c3)cc1)CC2 [compound 9476, Naphthaiene-2-carboxylic acid (2-{4-[2-(6,7-dimethoxy-3,4-dihydro-1H-isoquinolin-2-yl)-ethyl]-phenylcarbamoyl}-phenyl)-amide] | 136 | 350 | 2000 | – | – | – | – | 83
COc1cc2c(cc1OC)CN(CCc1ccc(NC(=O)c3ccc(NO)cc3NC(=O)c3cnc4ccccc4n3)cc1)CC2 [compound 9542, Quinoxaline-2-carboxylic acid (2-{4-[2-(6,7-dimethoxy-3,4-dihydro-1H-isoquinolin-2-yl)-ethyl]-phenylcarbamoyl}-5-hydroxyamino-phenyl)-amide] | – | 130 | 1900 | – | – | 128 | 14 | 160
COc1cc2c(cc1OC)CN(CCc1ccc(NC(=O)c3ccccc3NC(=O)c3ccc(F)cc3)cc1)CC2 [compound 9501, 2-(4-Fluoro-benzoylamino)-N-{4-[2-(6,7-dimethoxy-3,4-dihydro-1H-isoquinolin-2-yl)-ethyl]-phenyl}-benzamide] | – | 120 | 3000 | – | 1.9 | 69 | 40 | 183
O=C(Nc1ccccc1C(=O)Nc1ccc(CCN2CCc3ccccc3C2)cc1)c1cnc2ccccc2c1 [compound 9577, Quinoline-3-carboxylic acid (2-{4-[2-(3,4-dihydro-1H-isoquinolin-2-yl)-ethyl]-phenylcarbamoyl}-phenyl)-amide] | – | 320 | 7700 | 2.2 | 18 | 112 | – | –
COc1cc2c(cc1OC)CN(CCc1ccc(NC(=O)c3ccccc3NC(=O)c3cnc4c(c3)CCCC4)cc1)CC2 [compound 9590, 5,6,7,8-Tetrahydroquinoline-3-carboxylic acid (2-{4-[2-(6,7-dimethoxy-3,4-dihydro-1H-isoquinolin-2-yl)-ethyl]-phenylcarbamoyl}-phenyl)-amide] | – | 97 | 9500 | 2 | 14 | – | – | –
COc1cc2c(cc1OC)CN(CCc1ccc(NC(=O)c3ccccc3NC(=O)c3c(F)cccc3F)cc1)CC2 [compound 9514, 2-(2,6-Difluoro-benzoylamino)-N-{4-[2-(6,7-dimethoxy-3,4-dihydro-1H-isoquinolin-2-yl)-ethyl]-phenyl}-benzamide] | 120 | 250 | 7000 | – | – | – | – | 40
COc1ccc(C(=O)Nc2ccccc2C(=O)Nc2ccc(CCN3CCc4cc(OC)c(OC)cc4C3)cc2)cc1 [compound 9518, 2-(4-Methoxy-benzoylamino)-N-{4-[2-(6,7-dimethoxy-3,4-dihydro-1H-isoquinolin-2-yl)-ethyl]-phenyl}-benzamide] | 240 | 300 | 1500 | – | – | – | 19 | 120
